Test results as given in article PMC5360100 (Biochemical pharmacology, 2011).

What was measured:
Assay in all cases: […]cAMP formation from [alpha-32P]ATP, Sf9 membranes
Type in all cases: biochemical
canine AC5 [1] = target: T1, canine AC5 (Canis lupus, UniProt P30803); conditions: 300 µM; 7 mM Mg2+, 40 μM ATP, 10 μM GTPγS, pH 7.4, 30°C, 3% DMSO
bovine AC1 [2] = target: T2, bovine AC1 (Bos taurus, UniProt P19754); conditions: 300 µM; 7 mM Mg2+, 40 μM ATP, 10 μM GTPγS, pH 7.4, 30°C, 3% DMSO
rat AC2 [3] = target: T3, rat AC2 (Rattus norvegicus, UniProt P26769); conditions: 300 µM; 7 mM Mg2+, 40 μM ATP, 10 μM GTPγS, pH 7.4, 30°C, 3% DMSO
T3 sequence (P26769 whole entry): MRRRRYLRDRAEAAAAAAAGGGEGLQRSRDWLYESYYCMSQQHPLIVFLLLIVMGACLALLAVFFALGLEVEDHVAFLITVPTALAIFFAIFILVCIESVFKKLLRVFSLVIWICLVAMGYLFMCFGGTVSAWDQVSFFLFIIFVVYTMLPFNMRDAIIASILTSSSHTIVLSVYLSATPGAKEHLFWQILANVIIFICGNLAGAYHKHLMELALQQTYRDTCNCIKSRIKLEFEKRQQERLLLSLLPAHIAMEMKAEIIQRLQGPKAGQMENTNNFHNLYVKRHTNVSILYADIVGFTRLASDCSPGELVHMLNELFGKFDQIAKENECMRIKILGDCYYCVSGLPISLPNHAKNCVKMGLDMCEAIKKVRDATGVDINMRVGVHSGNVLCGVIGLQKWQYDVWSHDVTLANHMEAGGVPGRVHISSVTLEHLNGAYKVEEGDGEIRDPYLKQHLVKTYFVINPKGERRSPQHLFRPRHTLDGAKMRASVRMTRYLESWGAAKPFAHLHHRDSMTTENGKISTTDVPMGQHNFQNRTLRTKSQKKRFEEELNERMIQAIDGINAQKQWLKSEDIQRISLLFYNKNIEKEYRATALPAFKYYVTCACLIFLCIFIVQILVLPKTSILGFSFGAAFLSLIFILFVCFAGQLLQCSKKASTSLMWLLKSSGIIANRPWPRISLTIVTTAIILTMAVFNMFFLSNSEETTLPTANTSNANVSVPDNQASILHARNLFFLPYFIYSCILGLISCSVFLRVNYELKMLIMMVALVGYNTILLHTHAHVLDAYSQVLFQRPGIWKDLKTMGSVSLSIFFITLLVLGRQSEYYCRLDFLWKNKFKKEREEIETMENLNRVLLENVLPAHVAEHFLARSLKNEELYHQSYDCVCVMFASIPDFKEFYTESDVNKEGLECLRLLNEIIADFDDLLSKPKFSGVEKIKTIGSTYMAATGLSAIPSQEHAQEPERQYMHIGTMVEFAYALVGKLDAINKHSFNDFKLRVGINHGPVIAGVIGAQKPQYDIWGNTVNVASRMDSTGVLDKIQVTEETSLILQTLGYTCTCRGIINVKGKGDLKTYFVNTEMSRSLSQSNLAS

canine AC5 [4] = target: T1, canine AC5
bovine AC1 [5] = target: T2, bovine AC1
rat AC2 [6] = target: T3, rat AC2

T1 sequence (P30803 whole entry): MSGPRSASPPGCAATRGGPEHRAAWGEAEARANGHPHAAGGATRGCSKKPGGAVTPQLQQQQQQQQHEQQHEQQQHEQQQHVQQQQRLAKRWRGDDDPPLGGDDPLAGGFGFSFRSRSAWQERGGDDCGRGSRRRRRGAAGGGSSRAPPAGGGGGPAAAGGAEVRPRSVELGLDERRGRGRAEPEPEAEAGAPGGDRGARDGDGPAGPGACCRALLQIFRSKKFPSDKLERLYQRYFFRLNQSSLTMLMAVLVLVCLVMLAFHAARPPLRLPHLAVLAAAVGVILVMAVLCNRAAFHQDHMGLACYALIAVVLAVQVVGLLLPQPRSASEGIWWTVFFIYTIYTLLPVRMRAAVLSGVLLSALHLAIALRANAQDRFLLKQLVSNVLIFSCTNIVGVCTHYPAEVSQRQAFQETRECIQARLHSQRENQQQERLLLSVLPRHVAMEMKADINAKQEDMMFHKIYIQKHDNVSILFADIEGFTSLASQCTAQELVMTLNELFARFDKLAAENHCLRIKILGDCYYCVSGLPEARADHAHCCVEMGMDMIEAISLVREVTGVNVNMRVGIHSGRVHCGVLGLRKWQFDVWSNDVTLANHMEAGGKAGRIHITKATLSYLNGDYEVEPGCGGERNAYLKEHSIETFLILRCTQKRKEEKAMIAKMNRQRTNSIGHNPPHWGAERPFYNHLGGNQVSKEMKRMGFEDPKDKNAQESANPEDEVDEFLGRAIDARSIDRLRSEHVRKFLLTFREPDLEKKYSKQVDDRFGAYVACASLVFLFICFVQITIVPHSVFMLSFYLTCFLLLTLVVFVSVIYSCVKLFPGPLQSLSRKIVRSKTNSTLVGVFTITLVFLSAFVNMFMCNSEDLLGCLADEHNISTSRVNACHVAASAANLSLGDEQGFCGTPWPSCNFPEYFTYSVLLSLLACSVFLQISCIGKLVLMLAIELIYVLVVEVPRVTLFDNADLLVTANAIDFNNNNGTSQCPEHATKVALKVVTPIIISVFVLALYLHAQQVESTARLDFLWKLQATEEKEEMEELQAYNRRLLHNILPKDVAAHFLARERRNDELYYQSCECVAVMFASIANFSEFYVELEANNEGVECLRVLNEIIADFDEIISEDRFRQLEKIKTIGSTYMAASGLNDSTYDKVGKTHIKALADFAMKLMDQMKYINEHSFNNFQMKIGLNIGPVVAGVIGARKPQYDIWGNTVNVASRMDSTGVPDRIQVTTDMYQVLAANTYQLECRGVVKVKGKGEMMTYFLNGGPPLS
T2 sequence (P19754 whole entry): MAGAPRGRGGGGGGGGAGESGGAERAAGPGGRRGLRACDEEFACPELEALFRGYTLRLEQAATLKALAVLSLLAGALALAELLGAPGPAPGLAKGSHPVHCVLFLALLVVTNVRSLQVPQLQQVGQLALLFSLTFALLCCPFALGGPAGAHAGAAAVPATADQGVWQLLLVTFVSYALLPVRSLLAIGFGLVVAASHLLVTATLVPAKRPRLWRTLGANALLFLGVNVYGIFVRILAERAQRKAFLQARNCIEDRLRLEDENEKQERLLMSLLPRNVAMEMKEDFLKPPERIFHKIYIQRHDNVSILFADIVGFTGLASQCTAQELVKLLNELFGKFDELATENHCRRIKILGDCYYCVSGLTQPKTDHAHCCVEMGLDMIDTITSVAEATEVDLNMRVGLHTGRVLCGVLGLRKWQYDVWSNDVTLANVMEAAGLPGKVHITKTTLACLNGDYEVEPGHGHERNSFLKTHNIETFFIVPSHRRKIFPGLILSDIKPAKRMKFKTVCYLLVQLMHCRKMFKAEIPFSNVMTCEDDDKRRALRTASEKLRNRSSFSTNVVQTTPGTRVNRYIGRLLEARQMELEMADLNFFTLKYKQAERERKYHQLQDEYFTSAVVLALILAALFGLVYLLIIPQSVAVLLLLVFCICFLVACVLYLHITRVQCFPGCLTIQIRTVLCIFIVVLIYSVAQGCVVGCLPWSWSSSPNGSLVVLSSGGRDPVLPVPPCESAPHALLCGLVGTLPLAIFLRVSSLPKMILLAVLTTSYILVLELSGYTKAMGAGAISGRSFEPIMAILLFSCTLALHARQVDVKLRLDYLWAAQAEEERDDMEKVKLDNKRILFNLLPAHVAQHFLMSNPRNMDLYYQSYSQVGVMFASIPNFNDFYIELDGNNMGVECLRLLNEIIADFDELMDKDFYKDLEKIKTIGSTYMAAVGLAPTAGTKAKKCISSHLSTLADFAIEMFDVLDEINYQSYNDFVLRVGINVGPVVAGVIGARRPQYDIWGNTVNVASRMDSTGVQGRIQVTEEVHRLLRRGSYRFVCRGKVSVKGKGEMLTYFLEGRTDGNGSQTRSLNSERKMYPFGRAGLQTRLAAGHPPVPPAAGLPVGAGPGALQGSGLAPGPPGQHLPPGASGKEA

Row | Compound | AC5 / Efficacy [%] (canine AC5 [1]) | AC1 / Efficacy [%] (bovine AC1 [2]) | AC2 / Efficacy [%] (rat AC2 [3]) | EC50 (canine AC5 [4]) | EC50 (bovine AC1 [5]) | EC50 (rat AC2 [6])
1 | C=C[C@@]1(C)CC(=O)[C@]2(O)[C@@]3(C)CCCC(C)(C)[C@@H]3[C@H](O)[C@H](OC(C)=O)[C@@]2(C)O1 [1d-FS] | 14.7 ± 4.4% | 11.1 ± 4.7% | 1.7 ± 3.4% | – | – | –
2 | C=C[C@@]1(C)CC(=O)[C@]2(O)[C@@]3(C)[C@@H](O)CCC(C)(C)[C@@H]3[C@H](OC(C)=O)[C@H](O)[C@@]2(C)O1 [6A7DA-FS] | – | – | – | 52.1 ± 16.7 µM | 6.5 ± 2.1 µM | 1.8 µM
3 | C=C[C@@]1(C)CC(=O)[C@H]2[C@](C)(O1)[C@@H](OC(C)=O)[C@@H](O)[C@H]1C(C)(C)CC[C@H](O)[C@@]12C [9d-FS] | – | – | – | 77.8 ± 46.1 µM | 16.8 ± 3 µM | 242 ± 113 µM
4 | C=C[C@@]1(C)CC(=O)[C@]2(O)[C@@]3(C)[C@@H](O)CCC(C)(C)[C@@H]3[C@H](O)[C@H](OC(C)=O)[C@@]2(C)O1 [FS] | – | – | – | 4.6 ± 1.5 µM | 5.5 ± 0.8 µM | 47.3 ± 8.1 µM
